In brackets after ≈: the same amount, converted by molar mass. Read-outs that look alike come from different tables or passages of the source.
Legend:
[1] = system: pan-drug-resistant KPC-producing K. pneumoniae clinical isolate; set-up: method as in our unpublished data; conditions: paired with cefepime; separate paper and previous results, ref our unpublished data; cited from earlier work
CTX-M-96 β-lactamase [2] = biological target: T1, CTX-M-96 β-lactamase (Escherichia coli, UniProt Q9EXV5, N92S); experiment: Off rate (koff) after preincubation with saturating BATSI; assay type: biochemical
KPC-2 β-lactamase [3] = biological target: T2, KPC-2 β-lactamase (Klebsiella pneumoniae, UniProt Q9F663); experiment: as above; assay type: biochemical
T2 construct: made in house; host or cells: E. coli BL21 Star
Protocol: The koff value was determined by mixing KPC-2 or CTX-M-96 with 100 μM nitrocefin after preincubating 5 min with a saturating amount of each BATSI, and progress curves were fitted to a single exponential decay equation as previously described ([12][–][14]).

[4] = Solubility as DMSO stock solution; assay type: physicochemical; conditions: organic solvent or mixture
KPC-2 β-lactamase [5] = biological target: T2, KPC-2 β-lactamase; experiment: On rate (k2/K) from progress curves with nitrocefin; assay type: biochemical
Protocol: (§1) To determine the on rate (k2/K), progress curves were obtained by incubating KPC-2 or CTX-M-96 with increasing concentrations of BATSIs and 100 μM nitrocefin as the reporter substrate. Progress curves were fitted to equation 2 to obtain kobs values, by nonlinear least-squares fitting of the data, and k2/K was determined from equation 3. (2) A = vf * t + (v0 − vf) × (1 − e^−kobst)/kobserved + A0 (3) kobserved = k−2 + (k2/K) × ([I]/(1 + ([S]/Km nitrocefin))) In equation 2, A is absorbance at 482 nm, vf is final velocity, t is time, v0 is initial velocity, and A0 is initial absorbance at 482 nm. In equation 3, [I] is the concentration of BATSI and [S] is the concentration of nitrocefin. The data were plotted as kobs versus [BATSI], and the k2/K value was obtained by correcting the value for the slope of the line for the concentration and affinity of nitrocefin (Equation 4). (4) k2/Kcorrected = k2/Kobserved × (([S]/Km nitrocefin) + 1)

CTX-M-96 β-lactamase [6] = biological target: T1, CTX-M-96 β-lactamase; experiment: as above; assay type: biochemical
Protocol: as §1

KPC-2 β-lactamase [7] = biological target: T2, KPC-2 β-lactamase; experiment: IC50 after 5-min preincubation, nitrocefin reporter substrate; assay type: biochemical; conditions: 100 μM nitrocefin
Protocol: (§2) Using nitrocefin as an indicator substrate and 5 min incubation before steady-state velocities were determined, 50% inhibitory concentrations (IC50s) in the nanomolar range for KPC-2 and CTX-M-96 β-lactamases were measured, and both inhibitors bound CTX-M-96 with greater affinity than KPC-2 (Table 1). The IC50 was approximatively 40-fold lower for CTX-M-96 than KPC-2 for both inhibitors. The IC50 of S02030 is 2 nM against CTX-M-96 and 80 nM against KPC-2 ([12]). […] The on rates (k2/K) for S02030 and MB_076 versus CTX-M-96 were 24,000 M^−1 s^−1 and 3,900 M^−1 s^−1, respectively, and those for KPC-2 were 12,000 M^−1 s^−1 and 1,200 M^−1 s^−1 respectively (Table 1). […] The k2/K values for both BATSIs against CTX-M-96 were lower than those of avibactam ([16]). […] Kinetic plots for CTX-M-96–S02030, CTX-M-96–MB_076, and KPC-2–MB_076 are shown in Fig. S1 in the supplemental material.
(§3) The inhibition by BATSIs is assumed to follow a reversible mechanism according to the following scheme: (1) E + I ↔ E:I ↔ E-I^*↔ E-I^** where E represents the enzyme, I the BATSI, E:I the Michaelis complex, E-I* the enzyme-inhibitor complex as the acylation transition state analog, and E-I** the deacylation transition state intermediate, according to previous models ([15]). The half-maximal inhibitory concentration (IC50) was measured after a 5-min preincubation of the enzyme and each BATSI at increasing concentrations, with 100 μM nitrocefin as the reporter substrate, as previously described ([12], [13]).

CTX-M-96 β-lactamase [8] = biological target: T1, CTX-M-96 β-lactamase; experiment: as above; assay type: biochemical; conditions: 100 μM nitrocefin
Protocol: as §2, §3

KPC-2 β-lactamase [9] = biological target: T2, KPC-2 β-lactamase; set-up: method as in PMID 26729496; conditions: off rate, published previously; cited from earlier work
KPC-2 β-lactamase [10] = biological target: T2, KPC-2 β-lactamase; set-up: method as in PMID 26729496; conditions: published previously; cited from earlier work
[11] = system: Escherichia coli DH10B carrying blaSHV, blaKPC-2, and blaKPC-3 variants; set-up: method as in PMID 26729496; conditions: previous studies; cited from earlier work
CTX-M-96 = biological target: CTX-M-96; set-up: method as in PMID 26228623; conditions: previously reported; cited from earlier work

| Compound | restoration of cefepime activity [1] | Koff (CTX-M-96 β-lactamase [2]) | Koff (KPC-2 β-lactamase [3]) | solubility [4] | k2/K (KPC-2 β-lactamase [5]; on rate) | kinact/KI (KPC-2 β-lactamase [5]; on rate) | k2/K (CTX-M-96 β-lactamase [6]) | IC50 (KPC-2 β-lactamase [7]) | IC50 (CTX-M-96 β-lactamase [8]) | Koff (KPC-2 β-lactamase [9]) | IC50 (KPC-2 β-lactamase [10]) | restoration of susceptibility combined with cefepime [11] | k2/K fold higher compared to MB_076 (KPC-2 β-lactamase [5]) | inactivation efficiency value (kinact/KI) (CTX-M-96) |
| --- | --- | --- | --- | --- | --- | --- | --- | --- | --- | --- | --- | --- | --- | --- |
| Nc1nnc(SCC(=O)N[C@@H](Cn2cc(C(=O)O)nn2)B(O)O)s1 [MB_076] | restore cefepime activity | (0.62 ± 0.05) × 10^−3 s^−1 | 0.001 s⁻¹ | 1000 mM (≈ 373 mg/mL) | 1,200 M^−1 s^−1 | 1200 M⁻¹ s⁻¹ | 3,900 M^−1 s^−1 | 0.135 ± 0.02 µM | 0.004 ± 0.0005 µM | – | – | – | – | – |
| O=C(Cc1cccs1)N[C@@H](Cn1cc(C(=O)O)nn1)B(O)O [S02030] | restore cefepime activity | (0.75 ± 0.03) × 10^−3 s^−1 | – | 250 mM (≈ 81 mg/mL) | – | – | 24,000 M^−1 s^−1 | – | 0.002 ± 0.0002 µM | (0.46 ± 0.02) × 10^−3 s^−1 | 0.08 ± 0.002 µM | restored susceptibility | 10 fold | – |
| O=C(O)[C@H]1/C(=C/CO)O[C@@H]2CC(=O)N21 [clavulanic acid] | – | – | – | – | – | – | – | – | – | – | – | – | – | 45,000 M^−1 s^−1 |

From publication PMC9872677, “Boronic Acid Transition State Inhibitors as Potent Inactivators of KPC and CTX-M β-Lactamases: Biochemical and Structural Analyses” (Antimicrobial Agents and Chemotherapy, 2023)
